Measured values reported in patent US20240366770A1, “DEGRADATION OF BRUTON'S TYROSINE KINASE (BTK) BY CONJUGATION OF BTK INHIBITORS WITH E3 LIGASE LIGAND AND METHODS OF USE” (BeiGene Switzerland GmbH, priority 2021, published 2024).
Where two headings read alike, the source gives them in different places.

Legend:
HEK-293 cells = assay: HEK-293 cytotoxicity detection (CellTiter-Glo); format: cell-based; conditions: HEK-293 cells, 72 h incubation, CellTiter-Glo luminescence, IC50 of cell proliferation inhibition, read-out: HEK293
Method in brief: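 HEK-293 cells exposed 72 h to an 8-point, 4-fold dilution series (top 500× stock 5 mM in DMSO; 0.2% DMSO final). Viability by CellTiter-Glo luminescence after 10 min at room temperature; IC50 from four-parameter Hill fit of percent inhibition.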

BTK = target: T1, BTK (Homo sapiens, UniProt Q06187); assay: BTK degradation in TMD-8 cells (HTRF assay); format: cell-based; conditions: 6 h treatment, IC50 (DC50) of BTK degradation
T1 construct: High control=Cell group with added DMSO and without compound, indicating microplate readings without BTK degradation; endogenous in cells; host or cells: TMD-8
Method in brief: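 TMD-8 cells were exposed for 6 h to 8 compound doses (6-fold serial dilution, 0.2% DMSO). Lysed cells were incubated overnight at room temperature with HTRF antibodies and read at 665/620 nm. DC50 came from four-parameter fitting of % inhibition versus concentration.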

T1 sequence (Q06187 whole entry): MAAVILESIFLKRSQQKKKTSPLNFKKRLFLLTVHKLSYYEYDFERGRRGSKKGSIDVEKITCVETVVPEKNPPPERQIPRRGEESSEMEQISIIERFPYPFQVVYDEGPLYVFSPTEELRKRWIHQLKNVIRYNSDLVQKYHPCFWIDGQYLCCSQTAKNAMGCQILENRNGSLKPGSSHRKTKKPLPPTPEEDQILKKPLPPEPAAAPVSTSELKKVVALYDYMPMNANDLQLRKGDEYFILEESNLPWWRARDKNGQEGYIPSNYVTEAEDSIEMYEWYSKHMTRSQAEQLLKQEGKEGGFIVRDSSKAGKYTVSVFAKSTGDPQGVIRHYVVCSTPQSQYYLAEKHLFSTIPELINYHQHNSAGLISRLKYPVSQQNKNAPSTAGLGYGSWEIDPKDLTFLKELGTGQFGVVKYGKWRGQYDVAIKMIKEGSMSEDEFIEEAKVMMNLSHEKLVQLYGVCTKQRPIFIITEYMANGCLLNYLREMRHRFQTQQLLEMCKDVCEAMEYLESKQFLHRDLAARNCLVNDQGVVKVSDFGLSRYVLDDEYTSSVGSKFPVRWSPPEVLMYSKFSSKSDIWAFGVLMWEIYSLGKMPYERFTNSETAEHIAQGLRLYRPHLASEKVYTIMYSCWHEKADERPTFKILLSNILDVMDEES

SMILES | DC50 (BTK) | IC50 (HEK-293 cells; Homo sapiens) | IC50 (HEK-293 cells)
Cc1c([C@@H](C)NC(=O)c2noc(C(C)(C)C)n2)ccc(-c2ncnc3[nH]c4cc(N5CCN(Cc6cccc7c6C(C)(C)C(=O)N7C6CCC(=O)NC6=O)CC5)ccc4c23)c1F (stereo partly drawn) [Example 84, 5-(tert-butyl)-N-((1R)-1-(4-(7-(4-((1-(2,6-dioxopiperidin-3-yl)-3,3-dimethyl-2-oxoindolin-4-yl)methyl)piperazin-1-yl)-9H-pyrimido[4,5-b]indol-4-yl)-3-fluoro-2-methylphenyl)ethyl)-1,2,4-oxadiazole-3-carboxamide] | 8.15 nM | > 10000 nM | –
Cc1c([C@@H](C)NC(=O)c2noc(C(C)(C)C)n2)ccc(-c2ncnc3[nH]c4cc(N5CCN(Cc6ccc7c(c6)N(C6CCC(=O)NC6=O)C(=O)C7(C)C)CC5)ccc4c23)c1F (stereo partly drawn) [Example 85, 5-(tert-butyl)-N-((1R)-1-(4-(7-(4-((1-(2,6-dioxopiperidin-3-yl)-3,3-dimethyl-2-oxoindolin-6-yl)methyl)piperazin-1-yl)-9H-pyrimido[4,5-b]indol-4-yl)-3-fluoro-2-methylphenyl)ethyl)-1,2,4-oxadiazole-3-carboxamide] | > 2000 nM | > 10000 nM | –
Cc1c([C@@H](C)NC(=O)c2noc(C(C)(C)C)n2)ccc(-c2ncnc3[nH]c4cc(N5CCN(Cc6ccc7c(c6)C(C)(C)C(=O)N7C6CCC(=O)NC6=O)CC5)ccc4c23)c1F (stereo partly drawn) [Example 86, 5-(tert-butyl)-N-((1R)-1-(4-(7-(4-((1-(2,6-dioxopiperidin-3-yl)-3,3-dimethyl-2-oxoindolin-5-yl)methyl)piperazin-1-yl)-9H-pyrimido[4,5-b]indol-4-yl)-3-fluoro-2-methylphenyl)ethyl)-1,2,4-oxadiazole-3-carboxamide] | > 2000 nM | > 10000 nM | –
Cc1c([C@@H](C)NC(=O)c2noc(C(C)(C)C)n2)ccc(-c2ncnc3[nH]c4cc(N5CCN(C6CCN(Cc7ccc8c(c7)n(C7CCC(=O)NC7=O)c(=O)n8C)CC6)CC5)ccc4c23)c1F (stereo partly drawn) [Example 87, 5-(tert-butyl)-N-((1R)-1-(4-(7-(4-(1-((3-(2,6-dioxopiperidin-3-yl)-1-methyl-2-oxo-2,3-dihydro-1H-benzo[d]imidazol-5-yl)methyl)piperidin-4-yl)piperazin-1-yl)-9H-pyrimido[4,5-b]indol-4-yl)-3-fluoro-2-methylphenyl)ethyl)-1,2,4-oxadiazole-3-carboxamide] | > 2000 nM | > 10000 nM | –
Cc1c([C@@H](C)NC(=O)c2noc(C(C)(C)C)n2)ccc(-c2ncnc3[nH]c4cc(N5CCN(Cc6ccc(SC7CCC(=O)NC7=O)cc6)CC5)ccc4c23)c1F (stereo partly drawn) [Example 88, 5-(tert-butyl)-N-((1R)-1-(4-(7-(4-(4-((2,6-dioxopiperidin-3-yl)thio)benzyl)piperazin-1-yl)-9H-pyrimido[4,5-b]indol-4-yl)-3-fluoro-2-methylphenyl)ethyl)-1,2,4-oxadiazole-3-carboxamide] | > 2000 nM | > 10000 nM | –
Cc1cc(-c2ncnc3[nH]c4cc(N5CCN(CC6CCN(c7ccc(N8CCC(=O)NC8=O)cc7)CC6)CC5)ccc4c23)c(F)cc1[C@@H](C)NC(=O)c1nc(C2(C)CC2)no1 [Example 89, (R)—N-(1-(4-(7-(4-((1-(4-(2,4-dioxotetrahydropyrimidin-1(2H)-yl)phenyl)piperidin-4-yl)methyl)piperazin-1-yl)-9H-pyrimido[4,5-b]indol-4-yl)-5-fluoro-2-methylphenyl)ethyl)-3-(1-methylcyclopropyl)-1,2,4-oxadiazole-5-carboxamide] | 0.55 nM | > 10000 nM | –
Cc1cc(-c2ncnc3[nH]c4cc(N5CCN(C6CC(c7ccc([C@@H]8CCC(=O)NC8=O)cc7)C6)CC5)ccc4c23)c(F)cc1[C@@H](C)NC(=O)c1nc(C2(C)CC2)no1 (stereo partly drawn) [Example 90, N—((R)-1-(4-(7-(4-(3-(4-((S)-2,6-dioxopiperidin-3-yl)phenyl)cyclobutyl)piperazin-1-yl)-9H-pyrimido[4,5-b]indol-4-yl)-5-fluoro-2-methylphenyl)ethyl)-3-(1-methylcyclopropyl)-1,2,4-oxadiazole-5-carboxamide] | 0.86 nM | > 10000 nM | –
Cc1cc(-c2ncnc3[nH]c4cc(N5CCN(Cc6ccc7c(c6)N(C6CCC(=O)NC6=O)C(=O)C76CC6)CC5)ccc4c23)c(F)cc1[C@@H](C)NC(=O)c1noc(C(C)(C)C)n1 (stereo partly drawn) [Example 91, 5-(tert-butyl)-N-((1R)-1-(4-(7-(4-((1′-(2,6-dioxopiperidin-3-yl)-2′-oxospiro[cyclopropane-1,3′-indolin]-6′-yl)methyl)piperazin-1-yl)-9H-pyrimido[4,5-b]indol-4-yl)-5-fluoro-2-methylphenyl)ethyl)-1,2,4-oxadiazole-3-carboxamide] | > 2000 nM | > 10000 nM | –
COc1cc2c(cc1N1CCN(CCc3ccc(C4(C)CCC(=O)NC4=O)cc3)CC1)[nH]c1ncnc(-c3ccc([C@@H](C)NC(=O)c4nc(C(C)(C)C)no4)c(C)c3)c12 (stereo partly drawn) [Example 92, 3-(tert-butyl)-N-((1R)-1-(4-(6-methoxy-7-(4-(4-(3-methyl-2,6-dioxopiperidin-3-yl)phenethyl)piperazin-1-yl)-9H-pyrimido[4,5-b]indol-4-yl)-2-methylphenyl)ethyl)-1,2,4-oxadiazole-5-carboxamide] | 3.08 nM | > 10000 nM | –

Further lines, with some results ahead:

DC50 (BTK) | SMILES | IC50 (HEK-293 cells; Homo sapiens) | IC50 (HEK-293 cells)
2.51 nM | COc1cc2c(cc1N1CCN(CC3CCN(c4ccc(N5CCC(=O)NC5=O)cc4)CC3)CC1)[nH]c1ncnc(-c3cc(C)c([C@@H](C)NC(=O)c4nc(C5(C)CC5)no4)cc3F)c12 [Example 93, (R)—N-(1-(4-(7-(4-((1-(4-(2,4-dioxotetrahydropyrimidin-1(2H)-yl)phenyl)piperidin-4-yl)methyl)piperazin-1-yl)-6-methoxy-9H-pyrimido[4,5-b]indol-4-yl)-5-fluoro-2-methylphenyl)ethyl)-3-(1-methylcyclopropyl)-1,2,4-oxadiazole-5-carboxamide] | > 10000 nM | –
0.768 nM | COc1cc2c(cc1N1CCN(C3CC(c4ccc(N[C@H]5CCC(=O)NC5=O)cc4)C3)CC1)[nH]c1ncnc(-c3cc(C)c([C@@H](C)NC(=O)c4nc(C5(C)CC5)no4)cc3F)c12 (stereo partly drawn) [Example 94, N—((R)-1-(4-(7-(4-((1S,3s)-3-(4-(((R)-2,6-dioxopiperidin-3-yl)amino)phenyl)cyclobutyl)piperazin-1-yl)-6-methoxy-9H-pyrimido[4,5-b]indol-4-yl)-5-fluoro-2-methylphenyl)ethyl)-3-(1-methylcyclopropyl)-1,2,4-oxadiazole-5-carboxamide] | – | 420 nM
0.49 nM | COc1cc2c(cc1N1CCN([C@H]3C[C@@H](c4ccc(N[C@H]5CCC(=O)NC5=O)cc4)C3)CC1)[nH]c1ncnc(-c3cc(C)c([C@@H](C)NC(=O)c4nc(C5(C)CC5)no4)cc3F)c12 [Example 95, N—((R)-1-(4-(7-(4-((1R,3s)-3-(4-(((S)-2,6-dioxopiperidin-3-yl)amino)phenyl)cyclobutyl)piperazin-1-yl)-6-methoxy-9H-pyrimido[4,5-b]indol-4-yl)-5-fluoro-2-methylphenyl)ethyl)-3-(1-methylcyclopropyl)-1,2,4-oxadiazole-5-carboxamide] | > 10000 nM | –
2.98 nM | Cc1cc(-c2ncnc3[nH]c4cc(N5CCN(C6CC(c7ccc([C@H]8CCC(=O)NC8=O)cc7)C6)CC5)ccc4c23)c(F)cc1[C@@H](C)NC(=O)c1nc(C2(C)CC2)no1 (stereo partly drawn) [Example 96, N—((R)-1-(4-(7-(4-(3-(4-((R)-2,6-dioxopiperidin-3-yl)phenyl)cyclobutyl)piperazin-1-yl)-9H-pyrimido[4,5-b]indol-4-yl)-5-fluoro-2-methylphenyl)ethyl)-3-(1-methylcyclopropyl)-1,2,4-oxadiazole-5-carboxamide] | > 10000 nM | –
1.97 nM | Cc1c([C@@H](C)NC(=O)c2noc(C(C)(C)C)n2)ccc(-c2ncnc3[nH]c4cc(N5CCN(CC6CCN(Cc7ccc8c(c7)C(C)(C)C(=O)N8C7CCC(=O)NC7=O)CC6)CC5)ccc4c23)c1F (stereo partly drawn) [Example 98, 5-(tert-butyl)-N-((1R)-1-(4-(7-(4-((1-((1-(2,6-dioxopiperidin-3-yl)-3,3-dimethyl-2-oxoindolin-5-yl)methyl)piperidin-4-yl)methyl)piperazin-1-yl)-9H-pyrimido[4,5-b]indol-4-yl)-3-fluoro-2-methylphenyl)ethyl)-1,2,4-oxadiazole-3-carboxamide] | 7280 nM | –
1.02 nM | Cc1cc(-c2ncnc3[nH]c4cc(N5CCC6(CCN(CC7CCN(c8ccc(N9CCC(=O)NC9=O)cc8)CC7)C6)CC5)ccc4c23)ccc1[C@@H](C)NC(=O)c1nc(C(C)(C)C)no1 [Example 100, (R)-3-(tert-butyl)-N-(1-(4-(7-(2-((1-(4-(2,4-dioxotetrahydropyrimidin-1(2H)-yl)phenyl)piperidin-4-yl)methyl)-2,8-diazaspiro[4.5]decan-8-yl)-9H-pyrimido[4,5-b]indol-4-yl)-2-methylphenyl)ethyl)-1,2,4-oxadiazole-5-carboxamide] | 3420 nM | –
4.88 nM | Cc1cc(-c2ncnc3[nH]c4cc(N5CCC6(CC5)CCN(C5CC(c7ccc([C@H]8CCC(=O)NC8=O)cc7)C5)C6)ccc4c23)ccc1[C@@H](C)NC(=O)c1nc(C(C)(C)C)no1 (stereo partly drawn) [Example 102, 3-(tert-butyl)-N—((R)-1-(4-(7-(2-(3-(4-((R)-2,6-dioxopiperidin-3-yl)phenyl)cyclobutyl)-2,8-diazaspiro[4.5]decan-8-yl)-9H-pyrimido[4,5-b]indol-4-yl)-2-methylphenyl)ethyl)-1,2,4-oxadiazole-5-carboxamide] | 1020 nM | –
